Source: patent publication US10239843B2 (CANCER RESEARCH TECHNOLOGY LIMITED, priority 2014, dated 2019)
Like-named read-outs stand apart in the source and are kept apart here.

Tests used:
PARG in HeLa cell line = assay: PARG cell assay (PAR chain immunofluorescence after MMS); type: cell-based; conditions: HeLa cells
Summary of the method: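 HeLa cells were dosed with compound for 1 h, then given MMS at 50 μg/mL final for a further hour. Cells were methanol-fixed, permeabilised and stained overnight at 4° C with anti-PAR monoclonal antibody. Retained nuclear PAR chains, detected by indirect immunofluorescence, indicate PARG inhibition.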

Human Full Length PARG = Human Full Length PARG (Homo sapiens (Human), UniProt Q86W56); assay: PARG enzyme assay (TR-FRET); type: biochemical
Sequence of Human Full Length PARG (Q86W56 whole entry): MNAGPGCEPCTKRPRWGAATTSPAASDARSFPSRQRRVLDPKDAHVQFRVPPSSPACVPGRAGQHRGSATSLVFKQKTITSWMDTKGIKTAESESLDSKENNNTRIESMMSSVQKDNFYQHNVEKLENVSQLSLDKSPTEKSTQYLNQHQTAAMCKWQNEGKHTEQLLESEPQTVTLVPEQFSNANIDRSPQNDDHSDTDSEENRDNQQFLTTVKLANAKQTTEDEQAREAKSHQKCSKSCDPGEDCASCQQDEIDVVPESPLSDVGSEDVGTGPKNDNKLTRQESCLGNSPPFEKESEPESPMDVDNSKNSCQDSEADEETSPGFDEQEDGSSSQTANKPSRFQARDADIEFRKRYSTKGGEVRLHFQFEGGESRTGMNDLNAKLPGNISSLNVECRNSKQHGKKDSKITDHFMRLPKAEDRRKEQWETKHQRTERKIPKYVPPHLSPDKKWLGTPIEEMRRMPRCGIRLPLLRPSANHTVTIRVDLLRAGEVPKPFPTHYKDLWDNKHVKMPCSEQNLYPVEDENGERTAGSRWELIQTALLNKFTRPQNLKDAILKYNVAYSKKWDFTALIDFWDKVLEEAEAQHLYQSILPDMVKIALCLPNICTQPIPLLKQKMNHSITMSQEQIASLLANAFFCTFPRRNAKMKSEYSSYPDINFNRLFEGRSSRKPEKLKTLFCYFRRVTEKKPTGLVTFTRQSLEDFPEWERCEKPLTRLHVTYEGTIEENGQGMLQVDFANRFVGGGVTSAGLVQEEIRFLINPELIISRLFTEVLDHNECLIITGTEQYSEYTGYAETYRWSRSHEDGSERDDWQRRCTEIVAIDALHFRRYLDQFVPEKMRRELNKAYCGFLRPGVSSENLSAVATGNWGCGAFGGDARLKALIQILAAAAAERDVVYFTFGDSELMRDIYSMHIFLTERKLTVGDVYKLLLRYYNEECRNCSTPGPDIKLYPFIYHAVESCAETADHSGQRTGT

[1] = Homo sapiens, MMS treatment, read-out: PARG Cell IC50
[2] = MMS 50 μg/mL, read-out: PARG Cell IC50 Geomean
[3] = read-out: PARG Biochem IC50 Geomean
[4] = MMS treatment, read-out: PARG Cell IC50
[5] = Homo sapiens, MMS 50 μg/mL, read-out: PARG Cell IC50 Geomean

In the case of `Cc1cc(Cn2c(=O)c3cc(S(=O)(=O)NC4(C)CC4)ccc3n(CC(C)(C)C#N)c2=O)on1` [Example 452, 1-(2-Cyano-2-methyl-propyl)-N-(1-methylcyclopropyl)-3-[(3-methylisoxazol-5-yl)methyl]-2,4-dioxo-quinazoline-6-sulfonamide], the IC50 (PARG in HeLa cell line; [1]) is reported as 280 nM and the IC50 (Human Full Length PARG; read-out: PARG Biochem IC50) is reported as 202 nM.

`Cc1n[nH]c(Cn2c(=O)n(Cc3cnn(C)c3)c(=O)c3cc(S(=O)(=O)NC4(CF)CC4)ccc32)n1` [Example 592, N-[1-(Fluoromethyl)cyclopropyl]-3-[(1-methylpyrazol-4-yl)methyl]-1-[(3-methyl-1H-1,2,4-triazol-5-yl)methyl]-2,4-dioxo-quinazoline-6-sulfonamide] was tested, and the IC50 (PARG in HeLa cell line; [1]) was 11400 nM and the IC50 (Human Full Length PARG; read-out: PARG Biochem IC50) was 300 nM.

With `Cc1cc(Cn2c(=O)n(Cc3cnc(C)s3)c(=O)c3cc(S(=O)(=O)NC4(C#N)CC4)ccc32)on1` [Example 400, N-(1-Cyanocyclopropyl)-1-[(3-methylisoxazol-5-yl)methyl]-3-[(2-methylthiazol-5-yl)methyl]-2,4-dioxo-quinazoline-6-sulfonamide] the IC50 (PARG in HeLa cell line; [1]) was 320 nM and the IC50 (Human Full Length PARG; read-out: PARG Biochem IC50) was 27 nM.

In the case of `Cc1cc(Cn2nc(OC3COC3)c3ccc(S(=O)(=O)NC4(C)CC4)cc3c2=O)on1` [Example 317], the IC50 (PARG in HeLa cell line; [2]) is reported as 912 nM and the IC50 (Human Full Length PARG; [3]) is reported as 487 nM.

For `CCC(=O)Cn1c(=O)c2cc(S(=O)(=O)NC3(C)CC3)ccc2n(C)c1=O` [Example 469, 1-Methyl-N-(1-methylcyclopropyl)-2,4-dioxo-3-(2-oxobutyl)quinazoline-6-sulfonamide], the IC50 (PARG in HeLa cell line; [1]) was 663 nM and the IC50 (Human Full Length PARG; read-out: PARG Biochem IC50) was 1200 nM.

With `COCCn1c(=O)n(Cc2cc(C)no2)c(=O)c2cc(S(=O)(=O)NC3(C)CC3)ccc21` [Example 274] the IC50 (PARG in HeLa cell line; [2]) was 166 nM and the IC50 (Human Full Length PARG; [3]) was 237 nM.

With `COCCn1c(=O)n(Cc2cnn(C)c2)c(=O)c2cc(S(=O)(=O)NC3(CF)CC3)ccc21` [Example 462, N-[1-(Fluoromethyl)cyclopropyl]-1-(2-methoxyethyl)-3-[(1-methylpyrazol-4-yl)methyl]-2,4-dioxo-quinazoline-6-sulfonamide] the IC50 (PARG in HeLa cell line; [1]) was 322 nM and the IC50 (Human Full Length PARG; read-out: PARG Biochem IC50) was 244 nM.

For `Cn1cc(Cn2c(=O)c3cc(S(=O)(=O)NC4(CF)CC4)ccc3n(Cc3cnco3)c2=O)cn1` [Example 564, N-[1-(Fluoromethyl)cyclopropyl]-3-[(1-methylpyrazol-4-yl)methyl]-1-(oxazol-5-ylmethyl)-2,4-dioxo-quinazoline-6-sulfonamide], the IC50 (PARG in HeLa cell line; [1]) was 127 nM and the IC50 (Human Full Length PARG; read-out: PARG Biochem IC50) was 38 nM.

Work on `Cc1cc(Cn2c(=O)c3cc(S(=O)(=O)NC4(C)CC4)cc(-c4cnn(C)c4)c3n(C)c2=O)on1` [Example 483, 1-Methyl-N-(1-methylcyclopropyl)-3-[(3-methylisoxazol-5-yl)methyl]-8-(1-methylpyrazol-4-yl)-2,4-dioxo-quinazoline-6-sulfonamide] yielded an IC50 (PARG in HeLa cell line; [1]) of 845 nM and an IC50 (Human Full Length PARG; read-out: PARG Biochem IC50) of 1690 nM.

`Cn1cc(Cn2c(=O)c3cc(S(=O)(=O)NC4(CF)CC4)ccc3n(CC3CC3)c2=O)cn1` [Example 417, 1-(Cyclopropylmethyl)-N-[1-(fluoromethyl)cyclopropyl]-3-[(1-methylpyrazol-4-yl)methyl]-2,4-dioxo-quinazoline-6-sulfonamide] gave an IC50 (PARG in HeLa cell line; [1]) of 42 nM and an IC50 (Human Full Length PARG; read-out: PARG Biochem IC50) of 40 nM.

`Cn1cc(Cn2c(=O)c3cc(S(=O)(=O)NC4(CF)CC4)ccc3n(Cc3cscn3)c2=O)cn1` [Example 581, N-[1-(Fluoromethyl)cyclopropyl]-3-[(1-methylpyrazol-4-yl)methyl]-2,4-dioxo-1-(thiazol-4-ylmethyl)quinazoline-6-sulfonamide] was tested, and the IC50 (PARG in HeLa cell line; [4]) was 55 nM and the IC50 (Human Full Length PARG; read-out: PARG Biochem IC50) was 57 nM.

`Cn1cc(Cn2c(=O)c3cc(S(=O)(=O)NC4(C)CC4)ccc3n(CC3CCCCC3)c2=O)cn1` [Example 280] was tested, and the IC50 (PARG in HeLa cell line; [5]) was 103 nM and the IC50 (Human Full Length PARG; [3]) was 177 nM.

`Cc1cc(Cn2c(=O)c3cc(S(=O)(=O)NC4(CF)CC4)ccc3n(CC3COC3)c2=O)on1` [Example 522, N-[1-(Fluoromethyl)cyclopropyl]-3-[(3-methylisoxazol-5-yl)methyl]-1-(oxetan-3-ylmethyl)-2,4-dioxo-quinazoline-6-sulfonamide] was tested, and the IC50 (PARG in HeLa cell line; [1]) was 923 nM and the IC50 (Human Full Length PARG; read-out: PARG Biochem IC50) was 112 nM.

`CCCn1c(=O)n(Cc2cc(C)no2)c(=O)c2cc(S(=O)(=O)NC3(CF)CC3)ccc21` [Example 535, N-[1-(Fluoromethyl)cyclopropyl]-3-[(3-methylisoxazol-5-yl)methyl]-2,4-dioxo-1-propyl-quinazoline-6-sulfonamide] was tested, and the IC50 (PARG in HeLa cell line; [1]) was 147 nM and the IC50 (Human Full Length PARG; read-out: PARG Biochem IC50) was 191 nM.

Compound `Cn1cc(Cn2c(=O)c3cc(S(=O)(=O)NC4(C)CC4)ccc3n(CC3COC3)c2=O)cn1` [Example 297] has an IC50 (PARG in HeLa cell line; [5]) of 272 nM and an IC50 (Human Full Length PARG; [3]) of 69 nM.

`CC(=O)Cn1c(=O)n(Cc2cc(C)no2)c(=O)c2cc(S(=O)(=O)NC3(C)CC3)ccc21` [Example 323] showed an IC50 (PARG in HeLa cell line; [5]) of 736 nM and an IC50 (Human Full Length PARG; [3]) of 417 nM.

In the case of `C#CC1(NS(=O)(=O)c2ccc3c(c2)c(=O)n(Cc2cnn(C)c2)c(=O)n3CC2CC2)CC1` [Example 432, 1-(Cyclopropylmethyl)-N-(1-ethynylcyclopropyl)-3-[(1-methylpyrazol-4-yl)methyl]-2,4-dioxo-quinazoline-6-sulfonamide], the IC50 (PARG in HeLa cell line; [4]) is reported as 261 nM and the IC50 (Human Full Length PARG; read-out: PARG Biochem IC50) is reported as 486 nM.

With `Cc1cc(Cn2c(=O)c3cc(S(=O)(=O)NC4(C)CC4)ccc3n(Cc3nc(C)no3)c2=O)on1` [Example 252] the IC50 (PARG in HeLa cell line; [5]) was 297 nM and the IC50 (Human Full Length PARG; [3]) was 391 nM.

Work on `Cn1cc(Cn2c(=O)c3cc(S(=O)(=O)NC4(CF)CC4)ccc3n(Cc3c[nH]cn3)c2=O)cn1` [Example 575, N-[1-(Fluoromethyl)cyclopropyl]-1-(1H-imidazol-4-ylmethyl)-3-[(1-methylpyrazol-4-yl)methyl]-2,4-dioxo-quinazoline-6-sulfonamide] yielded an IC50 (PARG in HeLa cell line; [1]) of 1570 nM and an IC50 (Human Full Length PARG; read-out: PARG Biochem IC50) of 88 nM.

`CCn1c(=O)n(Cc2cnn(C)c2)c(=O)c2cc(S(=O)(=O)NC3(C#N)CC3)ccc21` [Example 347] was tested, and the IC50 (PARG in HeLa cell line; [5]) was 916 nM and the IC50 (Human Full Length PARG; [3]) was 210 nM.

Compound `Cc1cc(CN2C(=O)c3cccc4cc(S(=O)(=O)NC5(C)CC5)cc(c34)C2=O)on1` [Example 464, N-(1-Methylcyclopropyl)-2-[(3-methylisoxazol-5-yl)methyl]-1,3-dioxo-benzo[de]isoquinoline-5-sulfonamide] has an IC50 (PARG in HeLa cell line; [1]) of 1080 nM and an IC50 (Human Full Length PARG; read-out: PARG Biochem IC50) of 1040 nM.

For `Cn1cc(Cn2c(=O)n(C)c(=O)c3cc(S(=O)(=O)NC4(C)CC4)ccc32)cn1` [Example 152], the IC50 (PARG in HeLa cell line; [5]) was 520 nM and the IC50 (Human Full Length PARG; [3]) was 463 nM.

`Cc1cc(Cn2c(=O)n(Cc3cnn(C)c3)c(=O)c3cc(S(=O)(=O)NC4(C)CC4)c(F)cc32)on1` [Example 391, 7-Fluoro-N-(1-methylcyclopropyl)-1-[(3-methylisoxazol-5-yl)methyl]-3-[(1-methylpyrazol-4-yl)methyl]-2,4-dioxo-quinazoline-6-sulfonamide] showed an IC50 (PARG in HeLa cell line; [2]) of 67 nM and an IC50 (Human Full Length PARG; [3]) of 24 nM.

Compound `Cn1c(=O)n(Cc2cn[nH]c2)c(=O)c2cc(S(=O)(=O)NC3(C)CC3)ccc21` [Example 183, 1-methyl-N-(1-methylcyclopropyl)-2,4-dioxo-3-(1H-pyrazol-4-ylmethyl)quinazoline-6-sulfonamide] has an IC50 (PARG in HeLa cell line; [5]) of 931 nM and an IC50 (Human Full Length PARG; [3]) of 379 nM.

Work on `Cc1cc(Cn2c(=O)n(CC#N)c(=O)c3cc(S(=O)(=O)NC4(C)CC4)ccc32)n(C)n1` [Example 192] yielded an IC50 (PARG in HeLa cell line; [2]) of 1100 nM and an IC50 (Human Full Length PARG; [3]) of 274 nM.

With `Cn1cc(Cn2c(=O)c3cc(S(=O)(=O)NC4(C)CC4)ccc3n(CC3(C)CC3(F)F)c2=O)cn1` (stereo not drawn) [Example 329] the IC50 (PARG in HeLa cell line; [5]) was 129 nM and the IC50 (Human Full Length PARG; [3]) was 114 nM.

`Cn1cc(Cn2c(=O)c3cc(S(=O)(=O)NC4(C#N)CC4)ccc3n(CC3CC3)c2=O)cn1` [Example 346] gave an IC50 (PARG in HeLa cell line; [5]) of 390 nM and an IC50 (Human Full Length PARG; [3]) of 47 nM.
